What was measured:
[1] = test system: Hyperlipidemic Guinea Pigs; test: Multiple dose study in hyperlipidemic guinea pigs: plasma LDL/HDL ratio by lipoprotein electrophoresis (Test Method 2, Example 29); assay type: in vivo, guinea pig; details: 2.5 mg/kg i.p. once daily
Source text: Male Hartley guinea pigs (Elm Hill Breeding Labs., Chelmsford, MA or Charles River, Wilmington, MA) was used in all experiments unless otherwise specified. The animals were maintained on a normal diet of rabbit pellets (Purina Rabbit Chow 5321, Ralston Purina, St. Louis, MO) and water containing 0.1% ascorbic acid ad libitum. For special studies in the hyperlipidemic guinea pig model, the animals were maintained on the high cholesterol diet described in this report and water containing 0.1% ascorbic acid ad libitum.
Individual animals were identified by ear and cage markings. The dose of drug or placebo was adjusted daily for changes in the weight of the guinea pigs. Blood samples were collected in EDTA Vacutainers by open chest cardiac puncture under carbon dioxide anesthesia from guinea pigs which had been fasted overnight. The animals were then sacrificed by CO2 inhalation. Blood samples were centrifuged at 2000 rpm for 15 min. in an IEC centrifuge (International Equipment Co., Boston, MA) with a 240 rotor for isolation of plasma. Lipoprotein analyses of plasma were carried out on the same day as the blood collection. Assays of pseudocholinesterase activity were carried out within a week of blood collection on plasma samples which had been stored at 4° C.
Freshly prepared samples of EDTA plasma were analyzed for lipoproteins with the Redi-Disc Lipoprotein Electrophoresis Kit (Miles Laboratories, Elkhart, IN) by the procedure recommended in the package insert supplied in the kit.
Redi-Disc Lipoprotein Gel Tubes, polyacrylamide 3%, buffer, preservative.
Redi-Disc Lipoprotein Loading Gel, acrylamide 2.5 g/dl., N,N'-methylenebisacrylamide 0.6 g/dl, sudan black B 13 mg/dl, catalyst, stabilizer, buffer.
Redi-Disc Lipoprotein Buffer, Trishydroxymethylaminomethane 27% w/w, boric acid 73% w/w, pH of solution 7.4-7.9 (11 g diluted to 1200 ml with water).
The gel tubes were removed from the storage buffer and shaken to remove excess buffer. A 25 μl aliquot of plasma was added to each tube and mixed with 200 μl of loading gel. The loading gel was photopolymerized for 30-40 min. under a fluorescent light. The gel tubes were placed in the electrophoresis apparatus (Buchler Instruments, Fort Lee, NJ) and Redi-Disc Liproprotein Buffer was then added to the upper and lower chambers of the apparatus. The current was adjusted to 5 mA per gel tube. Electrophoresis was stopped when the HDL band was about 4-5 mm from the bottom of the gel tube.
The gels were stored in water for at least 30 min. following electrophoresis to allow the lipoprotein zones to spread. The gels were scanned at 615 nm in either a Beckman Acta C111 spectrophotometer or a Beckman DU-8B spectrophotometer. The areas of the lipoprotein peaks (VLDL, LDL, and HDL) were determined by gravimetric analysis (cut and weighed) on the Acta C111 or by electronic integration on the DU-8B.
A 1:15 mixture of cholesterol:corn oil was prepared by adding 25 g of USP cholesterol (Sigma Chemical Company, St. Louis, MO) to 375 g of corn oil (Mazola, Best Foods, CPC International, Inc., Englewood Cliffs, NJ). The mixture was stirred, sonicated, and heated in a hot water bath until the cholesterol completely dissolved. It was necessary to keep the mixture warm (50°-60° C.) in order to prevent congealing.
Batches of feed were prepared by adding 160 g of the cholesterol-corn oil solution to 840 g of Purina Rabbit Chow 5321. The pellets and lipid mixture were thoroughly mixed in a 2-liter or 3-liter Erlenmeyer flask to ensure uniform coating of the pellets. The feed was then stored at room temperature until needed.
Two groups of male Hartley Guinea pigs were maintained on the high cholesterol diet described above and water containing 0.1% ascorbic acid ad libitum. One group was treated once daily with a freshly prepared solution of test compound 4, N-(diaminophosphinyl)-4-fluorobenzamide, (1.0 mg/ml in 0.9% saline solution) at 2.5 mg/kg by intraperitoneal injection for 14 days. […]

pseudocholinesterase = biological target: T1, pseudocholinesterase (Homo sapiens, UniProt P06276); test: Inhibition of human plasma pseudocholinesterase (PChE) activity (Test Method 1); assay type: biochemical; details: 30 min preincubation
T1 construct: a 100 μl aliquot of human plasma; from tissue; host or cells: human plasma (EDTA blood, stored frozen)
T1 sequence (P06276 29-602): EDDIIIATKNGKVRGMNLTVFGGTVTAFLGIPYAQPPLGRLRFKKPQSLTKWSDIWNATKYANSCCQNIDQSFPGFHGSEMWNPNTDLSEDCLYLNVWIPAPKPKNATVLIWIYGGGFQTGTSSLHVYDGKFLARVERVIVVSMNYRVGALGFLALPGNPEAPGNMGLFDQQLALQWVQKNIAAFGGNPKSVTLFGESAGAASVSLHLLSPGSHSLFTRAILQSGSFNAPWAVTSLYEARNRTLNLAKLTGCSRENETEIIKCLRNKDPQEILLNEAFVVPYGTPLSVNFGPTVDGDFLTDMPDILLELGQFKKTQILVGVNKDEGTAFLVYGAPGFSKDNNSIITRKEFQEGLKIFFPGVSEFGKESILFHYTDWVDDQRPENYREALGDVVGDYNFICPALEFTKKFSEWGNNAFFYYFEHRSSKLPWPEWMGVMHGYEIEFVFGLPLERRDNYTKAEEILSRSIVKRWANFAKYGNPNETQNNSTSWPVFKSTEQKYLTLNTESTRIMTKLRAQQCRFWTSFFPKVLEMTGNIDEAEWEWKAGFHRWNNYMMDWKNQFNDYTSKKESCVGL
Procedure: The following method was used to determine the relative inhibition of pseudocholinesterase and acetylcholinesterase by compounds of the present invention.
Plasma (Source of Pseudocholinesterase Enzyme)
Human Plasma was obtained from blood which was collected in ethylenediaminetetraacetic acid (EDTA) treated tubes. Collected plasma was stored frozen at -20° C. until use.
The buffer/chromogen solution was 0.25 mM 5,5'-dithiobis-[2-nitrobenzoic acid] (chromogen), 50 mM phosphate buffer, pH 7.2. In making up the buffer/chromogen solution and to keep it as colorless as possible, the phosphate buffer was first adjusted to pH 7.1 with NaOH; the chromogen was then added and dissolved; the pH was adjusted to 7.2; and the final volume was adjusted with addition of Milli-Q water. 5,5'-dithiobis-(2-nitrobenzoic acid) was obtained from Sigma Chemicals, St. Louis, MO.
The substrate solution for the pseudocholinesterase assay was 156 mM S-butyrylthiocholine iodide, and the substrate solution for the acetylcholinesterase assay was 156 mM S-acetylthiocholine iodide. Both substrate compounds were obtained from Sigma Chemicals.
Test Compound Stock Solutions
Solutions of all test compounds were made up at 2 μM, 20 μM, and 200 μM concentrations (in 0.9% saline solution) except as noted where lower concentrations were necessary because of decreased solubility of the compound in saline solution.
Pseudocholinesterase (PChE) Assay
In three separate tubes, a 100 μl aliquot of either 0.9% saline solution, 2 μM test compound solution, or 20 μM test compound solution was mixed with a 100 μl aliquot of human plasma, and the tubes were placed in a 35° C. water bath. Four cuvettes, each containing 3 ml buffer/chromogen solution mixed with 100 μl substrate solution (156 mM S-butyrylthiocholine iodide), had been placed in a heated cuvette holder (35° C.) in a Beckman DU-8B Spectrophotometer (Beckman Instruments). After the temperature of the buffer/chromogen/substrate solution in the cuvette had equilibrated for about 10 minutes, and after 0 or 30 minutes incubation of the plasma/test compound solution, a 25 μl aliquot of the plasma/test compound solutions was added to the corresponding cuvettes numbered 2-4. Cuvette #1 remained a blank. After mixing, the net absorbance of each cuvette was determined at 405 nm every 35 seconds for ten readings. From a plot of net absorbance versus time, the initial linear portion of the curve was determined, and a rate of absorbance change per minute was calculated. The positive control (100% PChE activity) was the plasma/saline solution.
Each compound was tested for its ability to inhibit plasma pseudocholinesterase activity and acetylcholinesterase activity. Because of variation in the time points in the linear portion of the curve, inhibition values below 10-15% and higher than 85-90% are nearly indistinguishable from 0% and 100%, respectively.

SMILES: NP(N)(=O)NC(=O)c1ccc(F)cc1 [Test Compound 4, N-(diaminophosphinyl)-4-fluorobenzamide]
- LDL/HDL ratio vs saline-treated control ([1]; 14th day of treatment, result in words): significantly lower (p<0.05)
- LDL/HDL ([1]; day 1, control 2.45): 1.91
- LDL/HDL ([1]; day 3, control 2.28): 2.43
- LDL/HDL ([1]; day 7, control 4.25): 4.08
- LDL/HDL ([1]; day 10, control 3.23): 2.75
- LDL/HDL ([1]; day 14, control 2.60, significantly different from control (p < 0.05)): 1.50
- inhibition at 1 µM (pseudocholinesterase; 1 μM): 92.8%
- inhibition at 10 µM (pseudocholinesterase; 10 μM): 99.1%

Source: patent publication US4800194A, “Acylphosphorotriamides useful as lipid-altering agents” (priority 1986, dated 1989)
